# Assay results: US20240118559A1, “SUSTAINED RELEASE OF OLEIC ACID FROM CONTACT LENSES” (CooperVision International Limited, priority 2022, published 2024)
# Where a name gives a salt, the structure may show the parent alone.
# What was measured:
# [1] = target: T1, recombinant human PLA2G2A (sPLA2) (Homo sapiens, UniProt P14555); test: Oleic acid release from phospholipid-loaded stenfilcon A lenses in ATF with and without sPLA2 (digestion assay, LCMS); format: biochemical; conditions: 35±2° C., 4 hours; for Oleic acid peak area in ATF + sPLA2: ATF with 50 ppm recombinant human PLA2G2A; for Oleic acid peak area in ATF + sPLA2 / Oleic acid peak area in ATF: 4 mm piece of loaded stenfilcon A lens, 100 μL; for Oleic acid peak area in ATF: ATF without sPLA2
# T1 construct: purchased Creative BioMart PLA2G2A-669H
# T1 sequence (P14555 21-144): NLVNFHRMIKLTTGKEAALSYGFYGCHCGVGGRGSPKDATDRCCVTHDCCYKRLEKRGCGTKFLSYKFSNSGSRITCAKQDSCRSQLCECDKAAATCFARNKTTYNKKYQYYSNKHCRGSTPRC
# Procedure: The phospholipids shown in Table 1 were obtain from Avanti Polar Lipids. 3 mg/ml loading solutions of the phospholipids shown in Table 1 were prepared by adding 2.4 mL ethanol to 9 mg of phospholipid, sonicating (up to 15 minutes) then adding 0.6 mL DI water and sonicating again (up to 15 minutes) to dissolve the phospholipid.
# Hydrated contact lenses made from stenfilcon A were washed three times in 3 mL purified water for 30 minutes each time. Each washed lens was placed in 3 mL of a phospholipid loading solution and incubated at room temperature with gentle shaking at 75 rpm for 3 hours. The loaded lenses were then rinsed and hydrated in several exchanges of DI water. The lenses were packaged in a buffered saline contact lens packaging solution and autoclaved.
# An artificial tear fluid (ATF) was prepared by adding the first three ingredients listed in Table 2 to a clean class vial and then adding 30 mL of the fourth ingredient.
# After autoclave each lens was removed from its package and place in a 6 mL glass vial containing 5 mL of the ATF at room temperature on a shaker at 125 rpm overnight to elute any free oleic acid that may be present in the lens.
# Each lens was rinsed in a 6 ml glass vial containing a fresh aliquot of 5 mL ATF for 30 minutes prior to running the digestion assay.
# A 50 ppm solution of sPLA2 was prepared in ATF by adding 200 μl ATF to a tube containing 10 μg recombinant human PLA2G2A (Creative BioMart, Cat. No. PLA2G2A-669H). The solution is referred to as ATF+sPLA2. Two 4 mm pieces were cut from each lens. One piece of each lens was placed in a tube with 100 μL ATF and the other piece was placed in a tube containing 100 μL ATF+sPLA2. The tubes were incubated at 35±2° C. for 4 hours with no shaking.
# 50 μl of the release media from each lens at T=4 hr was transferred to HPLC vials and 500 μl isopropanol (IPA) was added and mixed well. T=0 hr HPLC vials were also prepared (50 μl ATF+500 μl IPA). All vials were sonicated for 15 minutes and centrifuged. The supernatant was removed for LCMS injection.
# The supernatants were injected on an LCMS instrument equipped with an ACQUITY UPLC BEH C18 […], 2.1 mm×15 cm column and running a mobile phase gradient from 65% A to 90% B at a flow rate of 0.35 mL/min with A=40% acetonitrile in water with 10 mM ammonium acetate and 0.2% (v/v) ammonium hydroxide, and B=10% acetonitrile in IPA with 10 mM ammonium acetate and 0.2% (v/v) ammonium hydroxide. The mass spec detector is run at negative electrospray mode. The peaks for oleic acid (OA) in the supernatants were measured (m/z trace=281.24). The ratio of OA peak area in ATF with and without sPLA2 was calculated.
# [2] = system: sPLA2 enzymes found in human tears; test: Susceptibility to digestion by sPLA2 enzymes found in human tears when present in a silicone hydrogel contact lens body; format: biochemical; conditions: phospholipid present in a silicone hydrogel contact lens body
# Text: To achieve these and other advantages, and in accordance with the purposes of the present invention, as embodied and broadly described herein, the present invention, in part relates to a hydrogel contact lens comprising a polymeric lens body loaded with 2-oleoyl phospholipid. The 2-oleoyl phospholipid is advantageously susceptible to digestion by secretory phospholipase 2-acylhydrolase (sPLA2) enzymes found in human tears, especially group IIA secretory phospholipase 2-acylhydrolase (sPLA2-IIA). The 2-oleoyl phospholipid present in the contact lens body is advantageously susceptible to digestion by sPLA2 enzymes found in human tears, especially sPLA2-IIA when the 2-oleoyl phospholipid is present in the polymeric lens body of a silicone hydrogel contact lens, such as a stenfilcon A contact lens. […] For the avoidance of doubt, while the determination of whether a 2-oleoyl phospholipid is susceptible to digestion by sPLA2 enzymes may be carried out by loading the 2-oleoyl phospholipid to a stenfilcon A lens, the contact lens of the invention, including contact lenses comprising 2-oleoyl phospholipid that have been determined to be susceptible to digestion by sPLA2 enzymes, need not be stenfilcon A lenses and may be silicone hydrogel lenses of any formulation. […]
SMILES,Ratio of OA peak area in ATF with and without sPLA2 [1],Oleic acid peak area in ATF + sPLA2 [1],Oleic acid peak area in ATF [1],Susceptibility to digestion by sPLA2 enzymes found in human tears [2]
"CCCCCCCC/C=C\CCCCCCCC(=O)OC[C@H](COP(=O)(O)OC[C@H](N)C(=O)O)OC(=O)CCCCCCC/C=C\CCCCCCCC [DOPS, 1,2-dioleoyl-sn-glycero-3-phospho-L-serine (sodium salt)]",16.4,1437,88,–
"CCCCCCCCCCCCCC(=O)OC[C@H](COP(=O)([O-])OCC[N+](C)(C)C)OC(=O)CCCCCCCCCCCCC [DMPC, 1,2-dimyristoyl-sn-glycero-3-phosphocholine]",–,–,–,not be susceptible to digestion
"CCCCCCCC/C=C\CCCCCCCC(=O)OC[C@H](COP(=O)([O-])OCC[N+](C)(C)C)OC(=O)CCCCCCC/C=C\CCCCCCCC [DOPC, 1,2-dioleoyl-sn-glycero-3-phosphocholine, reference compound]",1.2,125,102,–
"CCCCCCCC/C=C\CCCCCCCC(=O)OC[C@H](COP(=O)(O)OCCN)OC(=O)CCCCCCC/C=C\CCCCCCCC [DOPE, 1,2-dioleoyl-sn-glycero-3-phosphoethanolamine]",4.6,2127,463,–
"CCCCCCCC/C=C\CCCCCCCC(=O)OC[C@H](COP(=O)([O-])OCC(O)CO)OC(=O)CCCCCCC/C=C\CCCCCCCC.[Na+] (mixture of isomers) [DOPG, 1,2-dioleoyl-sn-glycero-3-phospho-(1′-rac-glycerol) (sodium salt)]",279,9958,36,–
